Data published in the supplement of paper PMC10883282.
± gives the standard deviation of the averaged measurements.

How the values were obtained:
Experiment in all cases: relative viability vs DMSO control (72 h) (fraction); higher = more viable cells
KHOS-240S = system: KHOS-240S
In short: (§1)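 Plates held 72 h at 37 °C and 5% CO2 contained sarcoma cell lines seeded in 384-well format to reach 80–90% confluence, plus 2.5 µl of serially diluted compound added after 24 h. Source plate concentrations ran from 10 mM to 0.0002 mM, with 0.1% DMSO as vehicle and a 5 µM positive control. Percent growth from ATPLite readings, averaged over up to triplicate wells, gave relative viability. Values were rescaled with 1 as full and 0 as none.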

RD = system: RD
In short: as §1

SYO-1 = system: SYO-1
In short: as §1

MES-SA = system: MES-SA
In short: as §1

SW1353 = system: SW1353
In short: as §1

SW982 = system: SW982
In short: as §1

VA-ES-BJ = system: VA-ES-BJ
In short: as §1

HT1080 = system: HT1080
In short: as §1

SK-LMS-1 = system: SK-LMS-1
In short: as §1

RD-ES = system: RD-ES
In short: as §1

G401 = system: G401
In short: as §1

SK-ES-1 = system: SK-ES-1
In short: as §1

Cc1cn(-c2cc(NC(=O)c3ccc(C)c(Nc4nccc(-c5cnccn5)n4)c3)cc(C(F)(F)F)c2)cn1 [Radotinib]
Conditions | relative viability
G401, 0.00017 µM | 1.02 ± 0.032
G401, 0.00051 µM | 1.06 ± 0.031
G401, 0.00152 µM | 1.07 ± 0.045
G401, 0.00457 µM | 1.1 ± 0.017
G401, 0.01372 µM | 1.12 ± 0.02
G401, 0.04115 µM | 1.11 ± 0.028
G401, 0.1235 µM | 1.1 ± 0.062
G401, 0.3704 µM | 1.08 ± 0.059
G401, 1.111 µM | 1.04 ± 0.061
G401, 3.333 µM | 0.984 ± 0.032
G401, 10 µM | 0.931 ± 0.018
HT1080, 0.00017 µM | 1.07 ± 0.043
HT1080, 0.00051 µM | 1.06 ± 0.049
HT1080, 0.00152 µM | 1.07 ± 0.065
HT1080, 0.00457 µM | 1.07 ± 0.028
HT1080, 0.01372 µM | 1.07 ± 0.029
HT1080, 0.04115 µM | 1.06 ± 0.026
HT1080, 0.1235 µM | 1.07 ± 0.013
HT1080, 0.3704 µM | 1.09 ± 0.042
HT1080, 1.111 µM | 1.03 ± 0.026
HT1080, 3.333 µM | 1.12 ± 0.013
HT1080, 10 µM | 1.06 ± 0.029
KHOS-240S, 0.00017 µM | 1.07 ± 0.014
KHOS-240S, 0.00051 µM | 1.07 ± 0.015
KHOS-240S, 0.00152 µM | 1.07 ± 0.028
KHOS-240S, 0.00457 µM | 1.07 ± 0.025
KHOS-240S, 0.01372 µM | 1.05 ± 0.036
KHOS-240S, 0.04115 µM | 1.06 ± 0.017
KHOS-240S, 0.1235 µM | 1.07 ± 0.031
KHOS-240S, 0.3704 µM | 1.05 ± 0.035
KHOS-240S, 1.111 µM | 1.04 ± 0.016
KHOS-240S, 3.333 µM | 1.05 ± 0.046
KHOS-240S, 10 µM | 1.02 ± 0.019
MES-SA, 0.00017 µM | 0.935 ± 0.032
MES-SA, 0.00051 µM | 0.938 ± 0.016
MES-SA, 0.00152 µM | 0.935 ± 0.022
MES-SA, 0.00457 µM | 0.941 ± 0.046
MES-SA, 0.01372 µM | 0.958 ± 0.042
MES-SA, 0.04115 µM | 0.954 ± 0.021
MES-SA, 0.1235 µM | 0.981 ± 0.044
MES-SA, 0.3704 µM | 0.99 ± 0.031
MES-SA, 1.111 µM | 1.01 ± 0.011
MES-SA, 3.333 µM | 1.01 ± 0.031
MES-SA, 10 µM | 1.03 ± 0.026
RD, 0.00017 µM | 1.11 ± 0.038
RD, 0.00051 µM | 1.1 ± 0.021
RD, 0.00152 µM | 1.12 ± 0.039
RD, 0.00457 µM | 1.12 ± 0.01
RD, 0.01372 µM | 1.12 ± 0.032
RD, 0.04115 µM | 1.11 ± 0.027
RD, 0.1235 µM | 1.13 ± 0.031
RD, 0.3704 µM | 1.12 ± 0.033
RD, 1.111 µM | 1.1 ± 0.028
RD, 3.333 µM | 1.07 ± 0.045
RD, 10 µM | 1.04 ± 0.046
RD-ES, 0.00017 µM | 0.982 ± 0.037
RD-ES, 0.00051 µM | 1.02 ± 0.041
RD-ES, 0.00152 µM | 1.01 ± 0.036
RD-ES, 0.00457 µM | 1.02 ± 0.057
RD-ES, 0.01372 µM | 1.005 ± 0.0038
RD-ES, 0.04115 µM | 1.01 ± 0.018
RD-ES, 0.1235 µM | 1.03 ± 0.031
RD-ES, 0.3704 µM | 1.01 ± 0.032
RD-ES, 1.111 µM | 1 ± 0.028
RD-ES, 3.333 µM | 0.991 ± 0.028
RD-ES, 10 µM | 1.01 ± 0.067
SK-ES-1, 0.00017 µM | 1.02 ± 0.042
SK-ES-1, 0.00051 µM | 1.01 ± 0.075
SK-ES-1, 0.00152 µM | 1.047 ± 0.0098
SK-ES-1, 0.00457 µM | 1.04 ± 0.066
SK-ES-1, 0.01372 µM | 1.07 ± 0.024
SK-ES-1, 0.04115 µM | 1.07 ± 0.062
SK-ES-1, 0.1235 µM | 1.05 ± 0.043
SK-ES-1, 0.3704 µM | 1.03 ± 0.065
SK-ES-1, 1.111 µM | 1.02 ± 0.026
SK-ES-1, 3.333 µM | 1.01 ± 0.063
SK-ES-1, 10 µM | 1.074 ± 0.0093
SK-LMS-1, 0.00017 µM | 1.05 ± 0.02
SK-LMS-1, 0.00051 µM | 1.07 ± 0.031
SK-LMS-1, 0.00152 µM | 1.08 ± 0.015
SK-LMS-1, 0.00457 µM | 1.05 ± 0.025
SK-LMS-1, 0.01372 µM | 1.08 ± 0.049
SK-LMS-1, 0.04115 µM | 1.14 ± 0.044
SK-LMS-1, 0.1235 µM | 1.14 ± 0.036
SK-LMS-1, 0.3704 µM | 1.19 ± 0.045
SK-LMS-1, 1.111 µM | 1.11 ± 0.061
SK-LMS-1, 3.333 µM | 1.18 ± 0.034
SK-LMS-1, 10 µM | 1.12 ± 0.028
SW982, 0.00017 µM | 1.066 ± 0.0051
SW982, 0.00051 µM | 1.07 ± 0.035
SW982, 0.00152 µM | 1.08 ± 0.014
SW982, 0.00457 µM | 1.07 ± 0.034
SW982, 0.01372 µM | 1.069 ± 0.01
SW982, 0.04115 µM | 1.08 ± 0.046
SW982, 0.1235 µM | 1.1 ± 0.043
SW982, 0.3704 µM | 1.11 ± 0.042
SW982, 1.111 µM | 1.11 ± 0.057
SW982, 3.333 µM | 1.13 ± 0.062
SW982, 10 µM | 1.12 ± 0.063
SW1353, 0.00017 µM | 1.02 ± 0.011
SW1353, 0.00051 µM | 1.023 ± 0.0072
SW1353, 0.00152 µM | 1.06 ± 0.044
SW1353, 0.00457 µM | 1.06 ± 0.018
SW1353, 0.01372 µM | 1.06 ± 0.016
SW1353, 0.04115 µM | 1.1 ± 0.015
SW1353, 0.1235 µM | 1.19 ± 0.028
SW1353, 0.3704 µM | 1.21 ± 0.023
SW1353, 1.111 µM | 1.25 ± 0.027
SW1353, 3.333 µM | 1.22 ± 0.081
SW1353, 10 µM | 1.17 ± 0.068
SYO-1, 0.00017 µM | 0.976 ± 0.062
SYO-1, 0.00051 µM | 0.978 ± 0.034
SYO-1, 0.00152 µM | 0.987 ± 0.021
SYO-1, 0.00457 µM | 0.967 ± 0.025
SYO-1, 0.01372 µM | 0.989 ± 0.037
SYO-1, 0.04115 µM | 0.988 ± 0.029
SYO-1, 0.1235 µM | 0.993 ± 0.012
SYO-1, 0.3704 µM | 0.945 ± 0.03
SYO-1, 1.111 µM | 0.802 ± 0.04
SYO-1, 3.333 µM | 0.688 ± 0.023
SYO-1, 10 µM | 0.644 ± 0.037
VA-ES-BJ, 0.00017 µM | 1.05 ± 0.039
VA-ES-BJ, 0.00051 µM | 1.08 ± 0.032
VA-ES-BJ, 0.00152 µM | 1.05 ± 0.029
VA-ES-BJ, 0.00457 µM | 1.06 ± 0.048
VA-ES-BJ, 0.01372 µM | 1.08 ± 0.053
VA-ES-BJ, 0.04115 µM | 1.05 ± 0.0088
VA-ES-BJ, 0.1235 µM | 1.11 ± 0.053
VA-ES-BJ, 0.3704 µM | 1.17 ± 0.058
VA-ES-BJ, 1.111 µM | 1.18 ± 0.047
VA-ES-BJ, 3.333 µM | 1.21 ± 0.045
VA-ES-BJ, 10 µM | 1.21 ± 0.055
